Reference: PubChem BioAssay (NCI)
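Grown in 96-well plates, cells were treated for 48 hours with each compound at five concentrations. Insufficient inhibition: endpoint recorded as highest concentration tested. At the TGI there is no net growth.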

Legend:
Assay in all cases: inhibition of tumour cell growth, NCI panel, 48 h
HL-60(TB) leukemia = tested on: HL-60(TB) leukemia
A498 renal = tested on: A498 renal
SW-620 colon = tested on: SW-620 colon
UO-31 renal = tested on: UO-31 renal
U251 CNS = tested on: U251 CNS
CAKI-1 renal = tested on: CAKI-1 renal
T-47D breast = tested on: T-47D breast
COLO 205 colon = tested on: COLO 205 colon
OVCAR-8 ovarian = tested on: OVCAR-8 ovarian
IGROV1 ovarian = tested on: IGROV1 ovarian
SK-MEL-5 melanoma = tested on: SK-MEL-5 melanoma
ACHN renal = tested on: ACHN renal
SF-539 CNS = tested on: SF-539 CNS
OVCAR-3 ovarian = tested on: OVCAR-3 ovarian
SN12C renal = tested on: SN12C renal
TK-10 renal = tested on: TK-10 renal
SR leukemia = tested on: SR leukemia
MOLT-4 leukemia = tested on: MOLT-4 leukemia
SNB-19 CNS = tested on: SNB-19 CNS
MDA-N = tested on: MDA-N
786-0 renal = tested on: 786-0 renal
SK-MEL-28 melanoma = tested on: SK-MEL-28 melanoma
UACC-62 melanoma = tested on: UACC-62 melanoma
HCT-116 colon = tested on: HCT-116 colon
KM12 colon = tested on: KM12 colon
RPMI-8226 leukemia = tested on: RPMI-8226 leukemia
HT29 colon = tested on: HT29 colon
HCC-2998 colon = tested on: HCC-2998 colon
MDA-MB-435 = tested on: MDA-MB-435
DU-145 prostate = tested on: DU-145 prostate
SNB-75 CNS = tested on: SNB-75 CNS
BT-549 breast = tested on: BT-549 breast
NCI-H522 lung = tested on: NCI-H522 lung
CCRF-CEM leukemia = tested on: CCRF-CEM leukemia
NCI-H226 lung = tested on: NCI-H226 lung
SF-268 CNS = tested on: SF-268 CNS
NCI-H460 lung = tested on: NCI-H460 lung
OVCAR-4 ovarian = tested on: OVCAR-4 ovarian
HCT-15 colon = tested on: HCT-15 colon
SK-MEL-2 melanoma = tested on: SK-MEL-2 melanoma
HOP-92 NSCLC = tested on: HOP-92 NSCLC
PC-3 prostate = tested on: PC-3 prostate
MDA-MB-231 breast = tested on: MDA-MB-231 breast
OVCAR-5 ovarian = tested on: OVCAR-5 ovarian
SF-295 CNS = tested on: SF-295 CNS
A549 NSCLC = tested on: A549 NSCLC
NCI-H23 lung = tested on: NCI-H23 lung
NCI/ADR-RES ovarian = tested on: NCI/ADR-RES ovarian
M14 melanoma = tested on: M14 melanoma
K-562 leukemia = tested on: K-562 leukemia
RXF 393 renal = tested on: RXF 393 renal
MCF7 breast = tested on: MCF7 breast
MALME-3M melanoma = tested on: MALME-3M melanoma
UACC-257 melanoma = tested on: UACC-257 melanoma
EKVX NSCLC = tested on: EKVX NSCLC
HOP-62 NSCLC = tested on: HOP-62 NSCLC
SK-OV-3 ovarian = tested on: SK-OV-3 ovarian
LOX IMVI melanoma = tested on: LOX IMVI melanoma

Structure (SMILES): CCN(CC)CCCNc1nc2ccccc2[n+]([O-])n1
- TGI (HL-60(TB) leukemia): > 100 µM
- TGI (A498 renal): > 100 µM
- TGI (SW-620 colon): > 100 µM
- TGI (UO-31 renal): > 100 µM
- TGI (U251 CNS): > 100 µM
- TGI (CAKI-1 renal): > 100 µM
- TGI (T-47D breast): > 100 µM
- TGI (COLO 205 colon): > 100 µM
- TGI (OVCAR-8 ovarian): > 100 µM
- TGI (IGROV1 ovarian): > 100 µM
- TGI (SK-MEL-5 melanoma): > 100 µM
- TGI (ACHN renal): > 100 µM
- TGI (SF-539 CNS): > 100 µM
- TGI (OVCAR-3 ovarian): > 100 µM
- TGI (SN12C renal): > 100 µM
- TGI (TK-10 renal): > 100 µM
- TGI (SR leukemia): > 100 µM
- TGI (MOLT-4 leukemia): > 100 µM
- TGI (SNB-19 CNS): > 100 µM
- TGI (MDA-N): > 100 µM
- TGI (786-0 renal): > 100 µM
- TGI (SK-MEL-28 melanoma): > 100 µM
- TGI (UACC-62 melanoma): > 100 µM
- TGI (HCT-116 colon): > 100 µM
- TGI (KM12 colon): > 100 µM
- TGI (RPMI-8226 leukemia): > 100 µM
- TGI (HT29 colon): > 100 µM
- TGI (HCC-2998 colon): > 100 µM
- TGI (MDA-MB-435): > 100 µM
- TGI (DU-145 prostate): > 100 µM
- TGI (SNB-75 CNS): > 100 µM
- TGI (BT-549 breast): > 100 µM
- TGI (NCI-H522 lung): > 100 µM
- TGI (CCRF-CEM leukemia): > 100 µM
- TGI (NCI-H226 lung): > 100 µM
- TGI (SF-268 CNS): > 100 µM
- TGI (NCI-H460 lung): > 100 µM
- TGI (OVCAR-4 ovarian): > 100 µM
- TGI (HCT-15 colon): > 100 µM
- TGI (SK-MEL-2 melanoma): > 100 µM
- TGI (HOP-92 NSCLC): > 100 µM
- TGI (PC-3 prostate): > 100 µM
- TGI (MDA-MB-231 breast): > 100 µM
- TGI (OVCAR-5 ovarian): > 100 µM
- TGI (SF-295 CNS): > 100 µM
- TGI (A549 NSCLC): > 100 µM
- TGI (NCI-H23 lung): > 100 µM
- TGI (NCI/ADR-RES ovarian): > 100 µM
- TGI (M14 melanoma): > 100 µM
- TGI (K-562 leukemia): > 100 µM
- TGI (RXF 393 renal): > 100 µM
- TGI (MCF7 breast): > 100 µM
- TGI (MALME-3M melanoma): > 100 µM
- TGI (UACC-257 melanoma): > 100 µM

Structure (SMILES): O=C1/C(=C/c2ccc3c(c2)CCC3)Cc2cc3c(cc21)CCC3
- TGI (HL-60(TB) leukemia): > 100 µM
- TGI (A498 renal): > 100 µM
- TGI (SW-620 colon): > 100 µM
- TGI (UO-31 renal): > 100 µM
- TGI (U251 CNS): > 100 µM
- TGI (EKVX NSCLC): > 100 µM
- TGI (HOP-62 NSCLC): > 100 µM
- TGI (T-47D breast): > 100 µM
- TGI (COLO 205 colon): > 100 µM
- TGI (OVCAR-8 ovarian): > 100 µM
- TGI (IGROV1 ovarian): > 100 µM
- TGI (SK-MEL-5 melanoma): > 100 µM
- TGI (SK-OV-3 ovarian): > 100 µM
- TGI (ACHN renal): > 100 µM
- TGI (SF-539 CNS): > 100 µM
- TGI (OVCAR-3 ovarian): > 100 µM
- TGI (SN12C renal): > 100 µM
- TGI (TK-10 renal): > 100 µM
- TGI (SR leukemia): > 100 µM
- TGI (MOLT-4 leukemia): > 100 µM
- TGI (SNB-19 CNS): > 100 µM
- TGI (MDA-N): > 100 µM
- TGI (SK-MEL-28 melanoma): > 100 µM
- TGI (UACC-62 melanoma): > 100 µM
- TGI (HCT-116 colon): > 100 µM
- TGI (KM12 colon): > 100 µM
- TGI (RPMI-8226 leukemia): > 100 µM
- TGI (HT29 colon): > 100 µM
- TGI (HCC-2998 colon): > 100 µM
- TGI (MDA-MB-435): > 100 µM
- TGI (DU-145 prostate): > 100 µM
- TGI (SNB-75 CNS): > 100 µM
- TGI (BT-549 breast): > 100 µM
- TGI (NCI-H522 lung): > 100 µM
- TGI (CCRF-CEM leukemia): > 100 µM
- TGI (NCI-H226 lung): > 100 µM
- TGI (SF-268 CNS): > 100 µM
- TGI (NCI-H460 lung): > 100 µM
- TGI (OVCAR-4 ovarian): > 100 µM
- TGI (HCT-15 colon): > 100 µM
- TGI (SK-MEL-2 melanoma): > 100 µM
- TGI (HOP-92 NSCLC): 97.6 µM
- TGI (PC-3 prostate): > 100 µM
- TGI (MDA-MB-231 breast): > 100 µM
- TGI (OVCAR-5 ovarian): > 100 µM
- TGI (LOX IMVI melanoma): > 100 µM
- TGI (SF-295 CNS): > 100 µM
- TGI (A549 NSCLC): > 100 µM
- TGI (NCI-H23 lung): > 100 µM
- TGI (NCI/ADR-RES ovarian): > 100 µM
- TGI (M14 melanoma): > 100 µM
- TGI (K-562 leukemia): > 100 µM
- TGI (RXF 393 renal): > 100 µM
- TGI (MCF7 breast): > 100 µM
- TGI (MALME-3M melanoma): > 100 µM
- TGI (UACC-257 melanoma): > 100 µM
